According to PMC5267425, “Identification of small molecule modulators of HIV-1 Tat and Rev protein accumulation” (Retrovirology, 2017):

Legend:
[1] = system: HIV-1 clade A (N54), clade B (IIIB), PRI-, RTI- and INI-resistant strains; experiment: HIV-1 replication in CEM-GXR cells (GFP positive cells, flow cytometry); assay type: cell-based; details: for IC50: Human immunodeficiency virus 1, IIIB, CEM-GXR; for HIV-1 replication of all viruses tested: clade A N54, clade B IIIB, PRI-, RTI-, INI-resistant strains
Description: Effects of compound treatment on HIV-1 gene expression were initially assessed in the context of HeLa rtTA HIV∆Mls cells stably transduced with an inducible Tet-On HIV-1 system (as previously described). The provirus was modified by either deletion in the reverse transcriptase and integrase region of the pol gene by an MlsI restriction digest (HeLa rtTA HIV∆Mls cell line) or GFP fusion to Gag, deleting the PR and RT-coding regions (HeLa rtTA HIVGagGFP cell line). […] All cell lines were maintained in Iscove’s modified Delbecco’s medium (IMDM; Wisent) supplemented with 10% (vol/vol) fetal bovine serum (FBS, Wisent), 1% penicillin/streptomycin (P/S, Wisent) and 0.2% Amphotericin B (Wisent). Indicator cell line CEM-GXR was obtained from Dr. Mark Brockman (Simon Fraser University). The RTI-resistant virus (E00443) was obtained from Dr. Zabrina Brumme (Simon Fraser University). The HIV-1 clade A (97USSN54 (N54)), HIV-1 clade B (IIIB), integrase inhibitor resistant virus (11845), protease inhibitor resistant virus (2948) were obtained through the NIH AIDS Research and Reference reagent program, Division of AIDS, NIAID, NIH).
To assess the activity of compounds against HIV-1 strains having resistance to various ART drugs, assays were performed in the context of CEM-GXR cells. These cells express CD4, CXCR4, and coreceptor, CCR5 as well as an exogenous Tat-driven LTR-GFP expression cassette. Cultures were infected with different HIV-1 strains of interest, differing on their subtypes (A and B), and resistance to three major drug targets (reverse transcriptase, protease, and integrase). The culture contains serial dilutions of the molecule in the final concentrations from 0.156 to 5 μM for 833; 725 nM to 46.87 μM for 791; 1.95 to 62.5 μM for 892. Antiviral activity was evaluated in the assay by measuring inhibition of HIV-1 spread in a coculture of CEM-GXR cells containing 1% of HIV-1 infected (GFP positive) cells using flow cytometric analysis (GuavaSoft 2.2 software, Guava HT8, Millipore). To estimate the viable cell counts, the gate in a flow cytometer (Guava HT8) was set to cover 95% of the freshly passaged uninfected CEM-GXR cell or using ViaCount™. The same parameter was employed to gate viable cells in the inhibition assay and the number of gated cells was obtained by GuavaSoft 2.2 software. For assays using ViaCount™, sample acquisition and data analysis were performed with the selection of EasyFit analysis feature using the ViaCount™ software module.

[2] = system: HIV-1 Gag expression in SupT1 NLESG cells; experiment: Gag (p24) ELISA in SupT1 24STNLESG cells after PMA induction; assay type: cell-based; details: for inhibition of HIV-1 gene expression in CD4+ SupT1 cells: Figure S1; for IC50: Human immunodeficiency virus 1, SUP-T1
Procedure: Additional file 1: Figure S1. 791 and 833 Suppress HIV-1 Gene Expression in SupT1 24NESLG Cell Line. a Schematic of HIV-1 provirus used to generated the stably transduced SupT1 cell line. b Effect of 791 and 833 on Gag expression in SupT1 NLESG cells. Cells were treated with indicated concentrations of 791/833 then HIV-1 expression induced by PMA addition. Media harvested after 24 h was subsequently assayed using Gag (p24) ELISA. Cell viability was measured by an XTT assay. 892 was not active in this cell line at the concentrations tested Additional file 2: Figure S7. Effect of compounds on CEM-GXR cell viability. Evaluation of 791, 833, and 892 on CEM-GXR cell viability in the Guava ViaCount assay. Cells were analyzed after 24 h incubation with the compounds at the indicated concentrations ranging between 0–47 μM (791), 0–5 μM (833), or 0–62.5 μM (892). Results are expressed as the percentage (%) of viable cells relative to DMSO treatment ±SEM of two independent experiments performed in triplicate. Cytotoxic concentration resulting in the death of 50% of the host cells (CC50) relative to DMSO measured by ViaCount assay (Millipore) are listed in Table 1 Additional file 3: Table S1. Mutations in HIV-1 proteins associated with resistance to ARVs Additional file 4: Figure S2.Pattern of HIV-1 RNA splicing. Shown at the top is the organization of the HIV-1 proviral genome indicating the position of the multiple 5′ splice donor sites (SD1–SD4) and 3′ splice acceptor sites (SA1–SA7) used in splicing of pre-mRNA. In the middle is an illustration of the alternatively spliced RNAs generated by processing of the HIV-1 genomic RNA. Indicated are the common (open boxes) and alternative exons (closed boxes) used in the generation of the SS (4 kb) and MS (1.8 kb) viral RNAs. At the bottom is a list of the nomenclature used to refer to the exon composition of the individual RNAs generated for both the SS and MS classes of HIV-1 RNAs Additional file 5: Figure S3. Characterization of HeLa rtTA HIVGagGFP cell line. a Representative images of HeLa rtTA HIVGagGFP C7 cells treated with DMSO in the absence (uninduced) or presence (induced) of doxycyclin (N ≥ 3). Cells were viewed at 630X (oil immersion) magnification. Images are cropped to show a representative field of view. b The dose range of the compounds which inhibit HIV-1 GagGFP expression in HeLa rtTA HIVGagGFP C7 cells was measured by mean fluorescence intensity and expressed relative to fluorescence intensity in DMSO-treated samples (N ≥ 3, *p ≤ 0.05, **p ≤ 0.01, and ***p ≤ 0.001). The effect of the compounds on cellular metabolism at the indicated concentrations was measured using an XTT assay as a readout of viable cells and expressed relative to absorbance reads of DMSO-treated samples (N ≥ 3, *p ≤ 0.05, **p ≤ 0.01, and ***p ≤ 0.001). Error bars indicate standard error of the mean (SEM) Additional file 6: Figure S4. […] MG132 (10 μM) was added for 8 h as an additional control to determine whether inhibition of the proteasome prevents protein degradation. All uninduced (unind.) and 0 h samples were treated with DMSO. GAPDH serves as loading control. b Summary of effect of compounds on HIV-1 Tat degradation. Band volume intensities of both p14 and p16 Tat isoforms were calculated for each treatment relative to that of the DMSO control treatment and were then normalized to corresponding GAPDH bands (N ≥ 3, except for 833, N = 1–2). […]

Compound	IC50 [1]	HIV-1 replication of all viruses tested [1]	inhibition of HIV-1 gene expression in CD4+ SupT1 cells [2]	IC50 [2]
Cc1cc(NCc2cccnc2)n2ncc(-c3ccc(Cl)cc3)c2n1 [Compound 791, 3-(4-chlorophenyl)-5-methyl-N-(3-pyridinylmethyl)pyrazolo[1,5-a]pyrimidin-7-amine]	4.5 µM	significant reductions	maintained their inhibition	26 µM
O=C(NC(=S)NNC(=O)c1ccccc1O)c1ccc(-c2ccccc2)cc1 [Compound 833, N-([2-(2-hydroxybenzoyl)hydrazino]carbonothioyl}-4-biphenylcarboxamide]	1 µM	significant reductions	maintained their inhibition	3.5 µM
COc1ccc(C=NNC(=O)c2ccccc2O)cc1O [Compound 892, 2-hydroxy-N′-(3-hydroxy-4-methoxybenzylidene)benzohydrazide]		only modest inhibitory activity	not active	
